Counter-ions that a name gives are not always drawn.
T1: pancreatic cholesterol esterase (CEase) (Sus scrofa, UniProt A0A286ZKB1)
T1 construct: gene CEL
T1 sequence (A0A286ZKB1 96-682): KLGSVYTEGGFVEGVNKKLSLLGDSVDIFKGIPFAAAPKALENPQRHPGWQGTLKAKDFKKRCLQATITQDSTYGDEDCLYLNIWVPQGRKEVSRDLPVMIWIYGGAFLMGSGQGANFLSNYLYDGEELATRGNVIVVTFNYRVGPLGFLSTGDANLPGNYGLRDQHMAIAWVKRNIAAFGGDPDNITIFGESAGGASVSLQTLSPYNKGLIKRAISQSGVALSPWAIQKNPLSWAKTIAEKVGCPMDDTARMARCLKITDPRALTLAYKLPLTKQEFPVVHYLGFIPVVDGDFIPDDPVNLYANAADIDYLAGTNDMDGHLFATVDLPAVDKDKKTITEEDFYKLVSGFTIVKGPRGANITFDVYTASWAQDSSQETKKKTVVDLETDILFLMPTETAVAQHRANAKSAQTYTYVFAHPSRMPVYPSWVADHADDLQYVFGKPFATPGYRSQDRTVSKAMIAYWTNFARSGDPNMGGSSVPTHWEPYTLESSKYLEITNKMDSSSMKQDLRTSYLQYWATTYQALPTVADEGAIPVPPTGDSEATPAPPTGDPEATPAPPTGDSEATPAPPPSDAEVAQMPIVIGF

B1: pancreatic cholesterol esterase (CEase) (Sus scrofa) (protein)
chain: KLGSVYTEGGFVEGVNKKLSLLGDSVDIFKGIPFAAAPKALENPQRHPGWQGTLKAKDFKKRCLQATITQDSTYGDEDCLYLNIWVPQGRKEVSRDLPVMIWIYGGAFLMGSGQGANFLSNYLYDGEELATRGNVIVVTFNYRVGPLGFLSTGDANLPGNYGLRDQHMAIAWVKRNIAAFGGDPDNITIFGESAGGASVSLQTLSPYNKGLIKRAISQSGVALSPWAIQKNPLSWAKTIAEKVGCPMDDTARMARCLKITDPRALTLAYKLPLTKQEFPVVHYLGFIPVVDGDFIPDDPVNLYANAADIDYLAGTNDMDGHLFATVDLPAVDKDKKTITEEDFYKLVSGFTIVKGPRGANITFDVYTASWAQDSSQETKKKTVVDLETDILFLMPTETAVAQHRANAKSAQTYTYVFAHPSRMPVYPSWVADHADDLQYVFGKPFATPGYRSQDRTVSKAMIAYWTNFARSGDPNMGGSSVPTHWEPYTLESSKYLEITNKMDSSSMKQDLRTSYLQYWATTYQALPTVADEGAIPVPPTGDSEATPAPPTGDPEATPAPPTGDSEATPAPPPSDAEVAQMPIVIGF

Columns and labels:
[1] = molecular target: T1, pancreatic cholesterol esterase (CEase); assay: time-dependent (pseudo substrate) inhibition kinetics, PNPB hydrolysis at […] nm; assay type: biochemical
[2] = molecular target: T1, pancreatic cholesterol esterase (CEase); assay: protection of the enzyme against carbamate inactivation by […] TFA; assay type: biochemical
purified protein = substrate: CCCC(=O)Oc1ccc([N+](=O)[O-])cc1; assay: purified protein; assay type: biochemical, Sus scrofa

Row | Molecule | KI (inactivation) [1] [nM] | further results
1 | C[C@@H](NC(=O)Oc1ccc2ccccc2c1-c1c(O)ccc2ccccc12)c1ccccc1 [(1S, αR)-1, 2'-N-(R)-α-methylbenzylcarbamyl-(S)-1, 1'-bi-2-naphthol] | 2000 ± 100 | –
2 | C[C@H](NC(=O)Oc1ccc2ccccc2c1-c1c(O)ccc2ccccc12)c1ccccc1 [(1R, αS)-1, 2'-N-(S)-α-methylbenzylcarbamyl-(R)-1, 1'-bi-2-naphthol] | 500 ± 30 | –
3 | C[C@H](NC(=O)Oc1ccc2ccccc2c1-c1c(O)ccc2ccccc12)c1ccccc1 [(1S, αS)-1, 2'-N-(S)-α-methylbenzylcarbamyl-(S)-1, 1'-bi-2-naphthol] | 6000 ± 400 | –
4 | O=C(c1ccccc1)C(F)(F)F [TFA, trifluoroacetophenone] | – | protection of the enzyme against carbamate inactivation by 2 μM TFA [2]: the enzyme is protected from inhibition by carbamate by binding of TFA
5 | C[C@@H](NC(=O)Oc1ccc2ccccc2c1-c1c(O)ccc2ccccc12)c1ccccc1 [(1R, αR)-1, 2'-N-(R)-α-methylbenzylcarbamyl-(R)-1, 1'-bi-2-naphthol] | 200 ± 10 | –
6 | B1 | – | Km (purified protein): 140 ± 10 µM

— paper PMC1262691, “Probing stereoselective inhibition of the acyl binding site of cholesterol esterase with four diastereomers of 2'-N-α-methylbenzylcarbamyl-1, 1'-bi-2-naphthol” (BMC Biochemistry, 2005)
